The subject of one series is NF-κB. Put plainly: High throughput assay for NF-κB reporter activity (luciferase, stably transfected SH-SY5Y cells). As to conditions: Homo sapiens, SH-SY5Y, read-out: EC50. It counts as cell-based, human. The procedure:
SH-SY5Y human neuroblastoma cell line was obtained from the American Tissue Culture collection (ATCC). A commercially available expression vector containing the NF-kB promoter enhancer region driving the firefly luciferase gene expression and a second plasmid containing the gene conferring resistance to blasticidin were used in a dual transfection approach to obtain a stable cell line. SH-SY5Y cells stably transfected with pNF-κB-luc/pEF6 were plated at 8,000 per well in a volume of 40 μl DMEM in either Corning white opaque, 384-well plates (Cat. No. 3570, Corning, Inc., Corning, N.Y.) or Corning black clear bottom, 384-well plates (Cat. No. 3712, Corning, Inc., Corning, N.Y.) and treated with test compounds for 24 hr at 37° C. Luciferase activity was measured as a reporter of NF-kB activation using the Bright-Glo Luciferase assay kit (Cat. No. E2620, Promega, Madison, Wis.) according to the manufacturer's instructions. Cell viability was measured using the CellTiter-Glo Luminescent Cell Viability assay kit (Cat. No. G7572, Promega, Madison, Wis.) according to the manufacturer's instructions. Briefly, cells were equilibrated at room temperature for 30 min prior to the addition of Bright-Glo to the white opaque plates or CellTiter-Glo to the black clear bottom plates. A volume of assay buffer equal to the volume of cell media was added to each well and incubated for five min to allow complete cell lysis. All procedures were performed in the dark. Luminescence was measured by the Synergy4 Multi-detection microplate reader (BioTek, Winooski, Vt.) within 15 min of lysis.

Series [1] is described as follows: Bioavailability / PK study (IV and PO). It counts as in vivo, mouse. The note with it: male, CD1, mouse, plasma. The procedure:
The experiments will involve the administration of compounds to 5-6 week old CD1 male mice. Mice are dosed by either a 1 mg/kg IV bolus or 5 mg/kg oral gavage. Blood samples are collected by cardiac puncture at 0, 0.25, 0.5, 1, 2, 4, 6, 8, 12, and 24 hrs. There will be three mice per time point. Plasma concentration over time will be determined by LC/MS from which the standard PK parameters of clearance, volume of distribution, t1/2 and % F can be derived using WinNoLin software (Pharsight Inc.). This will require a total of 60 mice per compound. Plasma will be analyzed by reverse phase chromatography with MS/MS detection operating in the positive ion mode using multiple reaction monitoring using an internal standard and Applied Biosystems Analyst 1.4 software. Peak time (when maximum plasma drug concentration occurs), peak drug level [approximate maximum concentrations of drug in plasma (Cmax)] and tin for drug elimination will be estimated for each tested compound. Bioavailability (F) will be calculated from the ratio of AUCPO/AUCIV and expressed as a percentage. To determine levels in brain, six additional mice will be dosed with 1 mg/kg I.V. and sacrificed at 0.25 and 1 hr. Brain and spinal cord samples will be collected at these two time points, quick frozen in an ice box and kept at −75±15° C. All samples will be weighed and homogenized with phosphate buffered saline (PBS) by brain weight (g) to PBS volume (mL) ratio 1:3 before analysis. The actual concentration is the detected value multiplied by the dilution factor.

Another series is described as follows: Solubility. It counts as physicochemical. As to conditions: buffer, pH 7.4, aqueous buffer, kinetic from dmso stock. The source says: (§1) A standard panel of in vitro ADME assays will be utilized to assess drug-like properties of compounds and to inform subsequent in vivo PK studies. These assays include: (a) Permeability: MDCK (Madin Darby Canine Kidney) cells transfected with the MDR1 gene encoding for the multi-drug resistant transporter (Pgp) will be utilized to determine a compound's ability to permeate the membrane in apical to basolateral (A-B) and basolateral to apical (B-A) directions. The derived apparent permeability coefficient (Papp) provides an estimate of passive permeability; a ratio of Papp in the B-A/A-B direction gives an estimate of transporter efflux; (b) Solubility: Kinetic solubility is an important parameter for accurate determinations of the dose response. This is estimated using the shake flask method with a μSol Explorer (PION, Billerica, Mass.) at pH 7.4. Compounds are added as a DMSO solution to buffer. The average of two determinations at pH 7.4 will be reported. Solubility at pH 7.4 is relevant for in vitro assays; (c) Metabolic Stability: The potential for a high metabolic clearance compound is estimated using a liver microsome assay. […] The disappearance of the parent molecule is measured by liquid chromatography/mass spectroscopy (LC/MS) detection. […]

For another series, the system named is MDR/MDCK cells. Put plainly: Permeability in MDR/MDCK cells. It counts as in vitro ADME, Canine.
Excerpt: as §1

The structures appear in SMILES notation. Converted amounts (≈) assume the structure as drawn. Read-outs that look alike come from different tables or passages of the source.

Regarding `O=C(O)c1cccc(-c2csc(Nc3ccccc3F)n2)c1` [Compound 3, 3-(2-((2-Fluorophenyl)amino)thiazol-4-yl)benzoic acid], in the series with NF-κB (Table 2, unit not given (μM for nos. 3 and 20)), the EC50 (usually the concentration that produces a half-maximal response) amounted to 0.84 µM. In the series on NF-κB, the EC50 is approximately 1 µM. Further, the Cmax (as a rule, the maximum level reached in the sampled fluid or tissue) in series [1] (oral, 5 mg/kg dose) is 100 ng/mL. The bioavailability in series [1] (1 mg/Kg IV and 5 mg/Kg po, read-out: orally bioavailable) stood at 26%. Besides, the solubility (as a rule, the dissolved amount per volume that the medium holds) in the series “Solubility” was 80 µM (≈ 25.1 µg/mL). In the series with MDR/MDCK cells, the efflux entry is “no efflux was observed” and the permeability result was “highly permeable”.
